# From paper PMC11653428, “5‐methyl‐2‐carboxamidepyrrole‐based novel dual mPGES‐1/sEH inhibitors as promising anticancer candidates” (Archiv Der Pharmazie, 2024)
# Read-outs that look alike come from different tables or passages of the source.
# Experiments:
# [1] = target: T1, human recombinant sEH (Homo sapiens, UniProt P34913); assay: Cell-free sEH activity assay (PHOME fluorescence, inhibitor screening kit); type: biochemical; details: for remaining activity at 10 µM: compound at 10 μM, percentage of vehicle control (DMSO) = 100%, n = 3, read-out: Residual activity of sEH, mean ± SD (%); for IC50: threefold dilutions from 30,000 to 1.52 nM, read-out: IC50 (µM), mean ± SD for sEH
# T1 construct: purchased 10011671
# T1 sequence (P34913 1-555): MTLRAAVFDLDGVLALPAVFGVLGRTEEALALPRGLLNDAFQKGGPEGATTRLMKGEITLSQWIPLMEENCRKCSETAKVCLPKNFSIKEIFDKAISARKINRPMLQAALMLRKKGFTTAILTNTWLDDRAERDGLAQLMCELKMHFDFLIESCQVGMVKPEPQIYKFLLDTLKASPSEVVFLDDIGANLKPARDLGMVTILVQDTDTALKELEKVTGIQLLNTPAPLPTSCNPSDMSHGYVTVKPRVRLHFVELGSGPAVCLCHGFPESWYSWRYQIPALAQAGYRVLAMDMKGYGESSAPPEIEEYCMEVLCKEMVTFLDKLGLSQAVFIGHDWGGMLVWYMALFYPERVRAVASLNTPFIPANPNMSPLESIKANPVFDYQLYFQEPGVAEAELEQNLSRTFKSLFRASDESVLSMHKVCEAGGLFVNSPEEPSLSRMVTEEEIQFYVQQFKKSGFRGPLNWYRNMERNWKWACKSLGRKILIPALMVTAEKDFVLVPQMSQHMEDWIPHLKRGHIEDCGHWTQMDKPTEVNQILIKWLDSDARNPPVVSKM
# Source text: When the epoxide moiety of PHOME is hydrolyzed by the epoxide hydrolase, an intramolecular cyclization occurs, which results in the release of a cyanohydrin under basic conditions. The cyanohydrin quickly decomposes into cyanide ion and the highly fluorescent 6‐Methoxy‐2‐naphthaldehyde, which can be analyzed. The signal was detected (λex 330 nm, λem 465 nm) on an EnSpire™ Multimode Plate Reader (PerkinElmer).
# The reaction was initiated by adding a small amount of a no-fluorescent substrate called PHOME. When sEH hydrolyzes PHOME, it triggers a chemical reaction that ultimately produces a fluorescent compound. The fluorescence emitted by this compound was measured using a plate reader, which allowed the researchers to analyze the enzyme activity and determine the effectiveness of the test compounds in inhibiting sEH.
# [2] = system: HCT-116 cells; assay: Cell survival index (MTT assay and cell count) in HCT-116 CRC cells; type: cell-based, human; details: 48 h of incubation, cell survival index, n = 24, read-out: IC50 ± SD (µM) HCT-116
# Experimental: HCT‐116 cells (CCL‐247 ™), an epithelial‐like carcinoma cell line isolated from the colon of an adult with colon cancer, were purchased from ATCC and cultured in Roswell Park Memorial Institute (Invitrogen) supplemented with 10% fetal bovine serum (FBS, Cambrex), L‐glutamine (2 mM, Sigma), penicillin (100 units/mL, Sigma), and streptomycin (100 μg/mL, Sigma), and cultured in a humidified 5% carbon dioxide atmosphere at 37°C, according to ATCC recommendations.^[ [58] ^]
# (§1) Bioactivity and cell responses to in vitro treatment with 1f, 2b, 2c, and 2d compounds were investigated through the estimation of a “cell survival index,” arising from the combination of cell viability evaluation with cell counting. The cell survival index is calculated as the arithmetic mean between the percentage values derived from the 3‐(4,5‐dimethyl‐2‐thiazolyl) 2,5‐diphenyl‐2‐H‐tetrazolium bromide (MTT) assay and the automated cell count.^[ [67] ^] HCT‐116 and HaCaT were inoculated in 96‐microwell culture plates at a density of 10^4 cells/well and allowed to grow for 24 h. Subsequently, the culture medium was exchanged with fresh medium, and cells were exposed to different concentrations (0→50 µM) of compounds 1f, 2b−2d under investigation for an additional 48 h. After the treatments, the medium was removed, and the cells were incubated with 20 μL/well of an MTT solution (5 mg/mL MTT, Sigma) for 1 h in a humidified 5% CO2 incubator at 37°C. The incubation was stopped by removing the MTT solution and by adding 100 μL/well of DMSO to solubilize the obtained formazan. Finally, the absorbance was monitored at 550 nm using a microplate reader (iMark microplate reader, Bio‐Rad). Cell number was determined by TC20 automated cell counter (Bio‐Rad), which uses disposable slides, TC20 trypan blue dye (0.4% trypan blue dye w/v in 0.81% sodium chloride and 0.06% potassium phosphate dibasic solution), and a CCD camera to count cells based on the analyses of captured images. The medium was removed, and the cells were collected. Ten microliters of cell suspension, mixed with 0.4% trypan blue solution at a 1:1 ratio, were loaded into the chambers of disposable slides. The results are expressed in terms of total cell count (cell number/mL). […] Total counts and live/dead ratio from random samples for each cell line were subjected to comparisons with manual hemocytometers in control experiments. […] Concentration‐effect curves were obtained with nonlinear regression using GraphPad Prism 8.0 curve‐fitting software.^[ [67] ^]
# (§2) Experiments on HTC-116 and HaCat cell lines: The bioactivity and cellular responses to treatment 2d were evaluated by calculating a "cell survival index." This index combines results from cell viability tests (using the MTT assay) and cell counting. HCT-116 and HaCaT cells were grown in 96-well plates for 24 hours, after which they were treated with various concentrations of the compounds for an additional 48 hours. After treatment, cell viability was assessed by incubating the cells with MTT solution, which results in the formation of formazan crystals. These crystals were dissolved in DMSO, and the absorbance was measured to determine cell viability.
# [3] = system: HaCaT cells; assay: Cell survival index (MTT assay and cell count) in HaCaT keratinocytes; type: cell-based, human; details: 48 h of incubation, cell survival index, n = 24, healthy control cells, read-out: IC50 ± SD (µM) HaCat
# Experimental: HaCaT cells, human immortalized keratinocytes (kindly provided by Dr. Valeria Cicatiello at Italian National Research Council (CNR), Institute of Genetics and Biophysics), were maintained in a humidified 5% CO2 atmosphere at 37°C and grown in DMEM (Invitrogen) supplemented with 10% fetal bovine serum (FBS, Cambrex), L‐glutamine (2 mM), penicillin (100 units/mL, Sigma‐Aldrich), and streptomycin (100 μg/mL). Cells were seeded at a density between 2 and 4 × 10^4 cells/cm^2 and cultured to about 80%–90% confluence.^[ [66] ^] HaCaT cells provide ideal in vitro cell systems to study biocompatibility and toxicological cellular responses.
# as §1, §2
# [4] = target: T2, mPGES-1 (Homo sapiens, UniProt O14684); assay: Cell-free mPGES-1 activity assay (microsomes of IL-1β-stimulated A549 cells, PGE2 formation by RP-HPLC); type: biochemical; details: for Residual activity of mPGES-1, mean ± SD (%) / remaining activity at 10 µM: compound at 10 μM, percentage of vehicle control (DMSO) = 100%, n = 3; for Residual activity of mPGES-1, mean ± SD (%): 10 µM; for remaining activity at 10 µM: read-out: Residual activity of mPGES-1, mean ± SD (%); for IC50: cell-free, A549 microsomes, read-out: IC50 (µM), mean ± SD for mPGES-1
# T2 construct: endogenous in cells; host or cells: A549 cells stimulated with IL-1β; microsomal fraction
# T2 sequence (O14684 1-152): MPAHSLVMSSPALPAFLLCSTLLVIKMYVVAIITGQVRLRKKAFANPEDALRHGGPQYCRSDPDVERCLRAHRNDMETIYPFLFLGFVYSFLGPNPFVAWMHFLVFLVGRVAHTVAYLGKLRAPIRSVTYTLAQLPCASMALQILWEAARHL
# Experimental: Compounds 1a–f and 2a–d were submitted to a cell‐free assay mPGES‐1^[ [52] ^] to validate the inhibitory activity predicted in silico.
# Microsomes of A549 cells containing mPGES‐1 were used as enzyme sources. In brief, A549 cells were stimulated with interleukin‐1β (IL‐1β) (2 ng/mL) for 48 h, harvested, and sonicated. The lysate was first centrifugated at 10,000g (10 min), and then at 174,000g for (1 h) at 4°C. The pellet (microsomal fraction) was resuspended in 1 ml homogenization buffer (0.1 M potassium phosphate buffer, pH = 7.4, 1 mM phenylmethanesulfonyl fluoride, 60 µg/mL soybean trypsin inhibitor, 1 µg/mL leupeptin, 2.5 mM GSH, and 250 mM sucrose), the total protein concentration was determined, and microsomes were diluted in potassium phosphate buffer (0.1 M, pH 7.4) containing GSH (2.5 mM) and seeded in a 96‐well plate. […] After 1 min, the addition of 100 µL of a stop solution (40 mM FeCl3, 80 mM citric acid, and 10 µM 11β‐PGE2) blocked the reaction. PGE2 and 11β‐PGE2 were extracted by solid‐phase extraction, and PGE2 formation was quantified by RP‐HPLC.^[ [52] ^]
# mPGES-1 activity assay: Microsomes from A549 cells, which contain the enzyme mPGES-1, were used in an experiment to study the production of PGE2. The A549 cells were first stimulated with IL-1β for 48 hours, then harvested and broken down by sonication. The resulting cell lysate was subjected to two rounds of centrifugation to isolate the microsomal fraction. The microsomes were diluted and placed in a 96-well plate, where they were preincubated with various compounds or a control solution. The production of PGE2 was triggered by adding a substrate, and the reaction was stopped after one minute. PGE2 was then extracted and quantified using HPLC.
# [5] = system: human recombinant mPGES-1; parameters: method as in earlier work; details: cited from earlier work
# [6] = system: mPGES-1 from A549 cells; parameters: method as in earlier work; details: cited from earlier work
Compound,remaining activity at 10 µM [1],remaining activity at 10 µM [4],IC50 [1],"IC50 ([2]; Homo sapiens, HCT-116)","IC50 ([3]; Homo sapiens, HaCaT)",also measured
"Cc1[nH]c(C(=O)Nc2ccc(C(C)O)cc2)cc1C(=O)c1ccccc1 (racemic) [Compound 1d, (±) 4‐Benzoyl‐N‐[4‐(1‐hydroxyethyl)phenyl]‐5‐methyl‐1H‐pyrrole‐2‐carboxamide]",93.4 ± 0.6%,,,,,
"N.N.[Cl][Pt][Cl] [Cisplatin, reference compound]",,,,,,IC50 [2]: 9 ± 3 µM; IC50 [3]: 20 ± 3 µM
"Cc1[nH]c(C(=O)Nc2ccc3ccccc3n2)cc1C(=O)c1ccccc1 [Compound 1b, 4‐benzoyl‐5‐methyl‐N‐(quinolin‐2‐yl)‐1H‐pyrrole‐2‐carboxamide]",71.8 ± 4.7%,~55%,,,,"Residual activity of mPGES-1, mean ± SD (%) [4]: 55.6 ± 2.9%"
"Cc1ccc(NC(=O)c2cc(C(=O)c3ccccc3)c(C)[nH]2)cc1C [Compound 1c, 4‐Benzoyl‐N‐(3,4‐dimethylphenyl)‐5‐methyl‐1H‐pyrrole‐2‐carboxamide]",47.7 ± 2.9%,65.5 ± 3.7%,,,,
"Cc1[nH]c(C(=O)Nc2cc(Cl)cc(Cl)c2)cc1C(=O)c1ccccc1 [Compound 1e, 4‐benzoyl‐N‐(3,5‐dichlorophenyl)‐5‐methyl‐1H‐pyrrole‐2‐carboxamide]",86.9 ± 4.8%,73.4 ± 5.2%,,,,
"Cc1[nH]c(C(=O)Nc2cc(N)cc(C(F)(F)F)c2)cc1C(=O)c1ccccc1 [Compound 1f, N‐[3‐Amino‐5‐(trifluoromethyl)phenyl]‐4‐benzoyl‐5‐methyl‐1H‐pyrrole‐2‐carboxamide]",36.1 ± 5.1%,~50%,5 ± 0.9 µM,25 ± 2 µM,37 ± 3 µM,"Residual activity of mPGES-1, mean ± SD (%) [4]: 47.6 ±4.4%"
"CCc1ccccc1NC(=O)c1cc(C(=O)c2ccc3ccccc3c2)c(C)[nH]1 [Compound 2a, 4‐(2‐Naphthoyl)‐N‐(2‐ethylphenyl)‐5‐methyl‐1H‐pyrrole‐2‐carboxamide]",74.3 ± 3.6%,83.4 ± 4%,,,,
"Cc1ccc(NC(=O)c2cc(C(=O)c3ccc4ccccc4c3)c(C)[nH]2)cc1O [Compound 2b, 4‐(2‐Naphthoyl)‐N‐(3‐hydroxy‐4‐methylphenyl)‐5‐methyl‐1H‐pyrrole‐2‐carboxamide]",21.7 ± 4.2%,17.6 ± 0.3%,1.5 ± 0.2 µM,42 ± 1 µM,31 ± 4 µM,IC50 [4]: 3.3 ± 0.5 µM
"COc1ccc(NC(=O)c2cc(C(=O)c3ccc4ccccc4c3)c(C)[nH]2)cc1O [Compound 2c, 4‐(2‐Naphthoyl)‐N‐(3‐hydroxy‐4‐methoxyphenyl)‐5‐methyl‐1H‐pyrrole‐2‐carboxamide]",47.2 ± 2.5%,30.4 ± 1.9%,6.3 ± 1.1 µM,44 ± 3 µM,43 ± 2 µM,IC50 [4]: 4 ± 1.1 µM
"Cc1[nH]c(C(=O)Nc2ccc(Cl)c(CO)c2)cc1C(=O)c1ccc2ccccc2c1 [Compound 2d, 4‐(2‐Naphthoyl)‐N‐[4‐chloro‐3‐(hydroxymethyl)phenyl]‐5‐methyl‐1H‐pyrrole‐2‐carboxamide]",41.6 ± 3.1%,21.5 ± 2.9%,7.6 ± 1 µM,39 ± 2 µM,22 ± 2 µM,IC50 [4]: 4.5 ± 1.3 µM
"CCCCCCCCCCCC(=O)c1c(C)c(CCC(=O)O)n(C)c1C [I, 3-(4-dodecanoyl-1,3,5-trimethyl-1H-pyrrol-2-yl)propanoic acid]",,,,,,Inhibition of human recombinant mPGES-1 at 1μM [%] [5]: 54±8 (n=7) %; Inhibition of mPGES-1 from A549 cells at 3.3 μM [%] [6]: 74±8 (n=5) %
